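The concentration for 50% growth inhibition is given as GI50. The concentration for full growth arrest is given as TGI.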
Experiments:
Assay in all cases: inhibition of tumour cell growth, NCI panel, 384-well format
786-0 renal = tested on: 786-0 renal
A498 renal = tested on: A498 renal
A549 NSCLC = tested on: A549 NSCLC
ACHN renal = tested on: ACHN renal
BT-549 breast = tested on: BT-549 breast
CAKI-1 renal = tested on: CAKI-1 renal
CCRF-CEM leukemia = tested on: CCRF-CEM leukemia
DU-145 prostate = tested on: DU-145 prostate
HCT-116 colon = tested on: HCT-116 colon
HCT-15 colon = tested on: HCT-15 colon
HL-60(TB) leukemia = tested on: HL-60(TB) leukemia
HOP-62 NSCLC = tested on: HOP-62 NSCLC
HOP-92 NSCLC = tested on: HOP-92 NSCLC
HS 578T breast = tested on: HS 578T breast
HT29 colon = tested on: HT29 colon
IGROV1 ovarian = tested on: IGROV1 ovarian
K-562 leukemia = tested on: K-562 leukemia
KM12 colon = tested on: KM12 colon
M14 melanoma = tested on: M14 melanoma
MALME-3M melanoma = tested on: MALME-3M melanoma
MCF7 breast = tested on: MCF7 breast
MDA-MB-231 breast = tested on: MDA-MB-231 breast
MDA-MB-435 melanoma = tested on: MDA-MB-435 melanoma
MDA-MB-468 breast = tested on: MDA-MB-468 breast
MOLT-4 leukemia = tested on: MOLT-4 leukemia
NCI-H226 lung = tested on: NCI-H226 lung
NCI-H23 lung = tested on: NCI-H23 lung
NCI-H322M lung = tested on: NCI-H322M lung
NCI-H522 lung = tested on: NCI-H522 lung
NCI/ADR-RES ovarian = tested on: NCI/ADR-RES ovarian
OVCAR-3 ovarian = tested on: OVCAR-3 ovarian
OVCAR-4 ovarian = tested on: OVCAR-4 ovarian
OVCAR-5 ovarian = tested on: OVCAR-5 ovarian
OVCAR-8 ovarian = tested on: OVCAR-8 ovarian
PC-3 prostate = tested on: PC-3 prostate
RPMI-8226 leukemia = tested on: RPMI-8226 leukemia
RXF 393 renal = tested on: RXF 393 renal
SF-268 CNS = tested on: SF-268 CNS
SF-295 CNS = tested on: SF-295 CNS
SF-539 CNS = tested on: SF-539 CNS
SK-MEL-2 melanoma = tested on: SK-MEL-2 melanoma
SK-MEL-28 melanoma = tested on: SK-MEL-28 melanoma
SK-OV-3 ovarian = tested on: SK-OV-3 ovarian
SN12C renal = tested on: SN12C renal
SNB-19 CNS = tested on: SNB-19 CNS
SNB-75 CNS = tested on: SNB-75 CNS
SW-620 colon = tested on: SW-620 colon
T-47D breast = tested on: T-47D breast
TK-10 renal = tested on: TK-10 renal
U251 glioblastoma = tested on: U251 glioblastoma
UACC-257 melanoma = tested on: UACC-257 melanoma
UACC-62 melanoma = tested on: UACC-62 melanoma
UO-31 renal = tested on: UO-31 renal

## CCCCC(=O)OCC(=O)[C@]1(O)Cc2c(O)c3c(c(O)c2[C@@H](OC2CC(NC(=O)C(F)(F)F)C(O)C(C)O2)C1)C(=O)c1c(OC)cccc1C3=O (some centres undefined)
786-0 renal
  GI50: 64.2 nM
  TGI: 1980 nM
A498 renal
  GI50: 87.5 nM
  TGI: 2870 nM
A549 NSCLC
  GI50: 84.4 nM
  TGI: 1780 nM
ACHN renal
  GI50: 213 nM
  TGI: 1890 nM
BT-549 breast
  GI50: 73.8 nM
  TGI: 1440 nM
CAKI-1 renal
  GI50: 128 nM
  TGI: 2530 nM
CCRF-CEM leukemia
  GI50: 17.3 nM
  TGI: 32.3 nM
DU-145 prostate
  GI50: 37.1 nM
  TGI: 1000 nM
HCT-116 colon
  GI50: 49 nM
  TGI: 34000 nM
HCT-15 colon
  GI50: 98.5 nM
  TGI: 1620 nM
HL-60(TB) leukemia
  TGI: 16.6 nM
HOP-62 NSCLC
  GI50: 42.1 nM
  TGI: 327 nM
HOP-92 NSCLC
  GI50: 142 nM
  TGI: 19200 nM
HS 578T breast
  GI50: 122 nM
  TGI: 1870 nM
HT29 colon
  GI50: 303 nM
  TGI: 2290 nM
IGROV1 ovarian
  GI50: 1110 nM
  TGI: 3860 nM
K-562 leukemia
  GI50: 104 nM
  TGI: 1760 nM
KM12 colon
  GI50: 99.6 nM
  TGI: 1700 nM
M14 melanoma
  GI50: 73.2 nM
  TGI: 1380 nM
MALME-3M melanoma
  GI50: 188 nM
  TGI: 1660 nM
MCF7 breast
  GI50: 84.9 nM
  TGI: 7560 nM
MDA-MB-231 breast
  GI50: 126 nM
  TGI: 2100 nM
MDA-MB-435 melanoma
  GI50: 738 nM
  TGI: 2630 nM
MDA-MB-468 breast
  GI50: 29.9 nM
  TGI: 85.9 nM
MOLT-4 leukemia
  TGI: 10.4 nM
NCI-H226 lung
  GI50: 122 nM
  TGI: 1190 nM
NCI-H23 lung
  GI50: 60.3 nM
  TGI: 1150 nM
NCI-H322M lung
  GI50: 2420 nM
  TGI: 15200 nM
NCI-H522 lung
  GI50: 101 nM
  TGI: 1000 nM
NCI/ADR-RES ovarian
  GI50: 7460 nM
  TGI: 44100 nM
OVCAR-3 ovarian
  GI50: 1200 nM
  TGI: 44500 nM
OVCAR-4 ovarian
  GI50: 1680 nM
  TGI: 7010 nM
OVCAR-5 ovarian
  GI50: 1240 nM
  TGI: 5620 nM
OVCAR-8 ovarian
  GI50: 73.3 nM
  TGI: 1810 nM
PC-3 prostate
  GI50: 1020 nM
  TGI: 4020 nM
RPMI-8226 leukemia
  GI50: 12.9 nM
  TGI: 36 nM
RXF 393 renal
  GI50: 320 nM
  TGI: 1940 nM
SF-268 CNS
  GI50: 70.2 nM
  TGI: 2110 nM
SF-295 CNS
  GI50: 53.6 nM
  TGI: 1460 nM
SF-539 CNS
  GI50: 73.1 nM
  TGI: 1340 nM
SK-MEL-2 melanoma
  GI50: 372 nM
  TGI: 991 nM
SK-MEL-28 melanoma
  GI50: 468 nM
  TGI: 2020 nM
SK-OV-3 ovarian
  GI50: 107 nM
  TGI: 5440 nM
SN12C renal
  GI50: 60.6 nM
  TGI: 1370 nM
SNB-19 CNS
  GI50: 64.8 nM
  TGI: 11900 nM
SNB-75 CNS
  GI50: 142 nM
  TGI: 1290 nM
SW-620 colon
  GI50: 75.3 nM
  TGI: 16200 nM
T-47D breast
  GI50: 96.2 nM
  TGI: 2570 nM
TK-10 renal
  GI50: 997 nM
  TGI: 5090 nM
U251 glioblastoma
  GI50: 45 nM
  TGI: 10400 nM
UACC-257 melanoma
  GI50: 404 nM
  TGI: 1740 nM
UACC-62 melanoma
  GI50: 50.6 nM
  TGI: 1020 nM
UO-31 renal
  GI50: 1480 nM
  TGI: 2990 nM
